One experiment has as its system eggs of Aleyrodidae. Kind of experiment: Effect on hatching of eggs of Aleyrodidae, leaf disc method. The class given is in vivo. The note with it: 10 ppm; for Hatching rate (%), Replicate 1 / Hatching rate (%), Replicate 2 / Hatching rate (%), Replicate 3 / Number of hatched larvae 5 days after insecticide delivery, Replicate 1 / Number of hatched larvae 5 days after insecticide delivery, Replicate 2 / Number of hatched larvae 5 days after insecticide delivery, Replicate 3: Aleyrodidae eggs; for Hatching rate (%), Replicate 1 / Hatching rate (%), Replicate 2 / Hatching rate (%), Replicate 3: 5 days after delivery; for Number of hatched larvae 5 days after insecticide delivery, Replicate 1 / Number of hatched larvae 5 days after insecticide delivery, Replicate 2 / Number of hatched larvae 5 days after insecticide delivery, Replicate 3: leaf disc. How it is done:
(§1) • (1) Preparation of leaf discs containing eggs: 20 female adult mites of Tetranychus cinnabarinus were transferred onto leaf discs of Vicia faba with a diameter of 2.0 cm (with wetted filter paper at the bottom), then covered it with a lidded culture dish and cultivated under moisturizing conditions, the adult mites were removed within 36 hours and microscopic examination and counting were performed on leaf discs containing eggs. • (2) Investigation of egg population base: Before pesticide soaking, a microscopic examination was conducted on the egg basic number of each leaf disc, with 2 replicates set for each treatment. • (3) Pesticide soaking treatment: The leaf butterflies loaded with mite eggs were soaked in clear water and sulfite compounds for 10 seconds, respectively, then taken out and cultivated under moisturizing conditions. Each treatment should be repeated for no less than 3 times. • (4) Cultivation and observation: The […] were cultivated under normal conditions. Five days after insecticide delivery, the hatching status of mite eggs was investigated. • Note: The temperature and humidity conditions of the constant temperature and humidity incubator after the treatment should be controlled so as to avoid excessive temperature differences, which may cause generation and dripping of condensate water in the culture dish, resulting in abnormal death of eggs due to soaking in water; it is also necessary to ensure sufficient strong ambient light, without directing irradiating the leaves. • (5) Survey of Results: The experimental materials of each treatment group were regularly hydrated and moisturized, and the hatching of eggs was observed. On the 7th day after insecticide delivery, the number of hatched eggs for each treatment was recorded, and the survey of results was recorded in the original notebook. According to the experimental requirements and characteristics of agents, the survey time can be shortened or extended.
(§2) • 1) Surveying and recording the number of hatched eggs for each treatment. • 2) Photographing and recording whether there was any pesticide damage to the leaf discs of Vicia faba. • 3) Recording the developmental status of experimental mite eggs, behavior status of nymph mites, including abnormal phenomena such as delayed or stopped development of mite eggs, difficulty in breaking hull for nymph mites, or painful struggles after hatching, etc. • (6) Calculation method: Based on the survey data, the prevention and control effect of each treatment was calculated according to the following formula, and the calculation results were kept to two decimal places.
This test adopted the method in Test Example 1 of technical section, mainly used leaf disc method to explore the inhibitory effect on hatching of eggs of Aleyrodidae by compounds 1-(S,S), 1-(S,R), 1-(R,R), 1-(R,S), 1′-(S,S), 1′-(S,R), 1′-(R,R), 1′-(R,S), compound 1, compound 1′, S-10, R-10, S-10′, R-10′, compound 10, compound 10′, compound 19-(S,S), 19-(S,R), 19-(R,R), 19-(R,S), 19′-(S,S), 19′-(S,R), 19′-(R,R), 19′-(R,S), compound 19, and compound 19′. The concentration of all compounds was 10 ppm.

The test system of experiment [1] is eggs of Tetranychus urticae. Kind of experiment: Effect on hatching of eggs of Tetranychus urticae, leaf disc method. The note with it: 5 ppm; for Hatching rate (%): 5 days after insecticide delivery. The class given is in vivo. How it is done: as §1, §2
This test adopted the method in Test Example 1 of technical section, mainly used leaf disc method to explore the inhibitory effect on hatching of eggs of Tetranychus urticae by compounds 1-(S,S), 1-(S,R), 1-(R,R), 1-(R,S), 1′-(S,S), 1′-(S,R), 1′-(R,R), 1′-(R,S), compound 1, compound 1′, S-10, R-10, S-10′, R-10′, compound 10, compound 10′, compound 19-(S,S), 19-(S,R), 19-(R,R), 19-(R,S), 19′-(S,S), 19′-(S,R), 19′-(R,R), 19′-(R,S), compound 19, and compound 19′. The concentration of all compounds was 5 ppm.

Setting [2] is: Replicate 1, listed as 1′-(S, R).
Setting [3] is: Replicate 2, listed as 1′-(S, R).
Where [4] appears, read: Replicate 1, listed as 1′-(S, S).
Where [5] appears, read: Replicate 2, listed as 1′-(S, S).
The mark [6] stands for this setting: Replicate 1, listed as 19-(R, R).
Setting [7] is: Replicate 2, listed as 19-(R, R).
Where [8] appears, read: Replicate 1, listed as 19-(S, S).
Setting [9] is: Replicate 2, listed as 19-(S, S).
[10] abbreviates: Replicate 1, listed as 19′-(R, R).
The mark [11] stands for this setting: Replicate 2, listed as 19′-(R, R).

SMILES strings stand for the structures.

The text below walks through data of US20260184675A1, “CHIRAL ISOMERIC SULFITE COMPOUND AND APPLICATION THEREOF” (Chengdu Hanova BioSciences Co., Ltd, priority 2024, published 2026).

Consider `CC(COc1ccc(Cl)cc1Cl)OS(=O)OCCF` [1′-(S,R)], for which, in the experiment on eggs of Aleyrodidae, the “inhibitory activity on the hatching of eggs of Aleyrodidae (in words)” value (“inhibitory activity … of Aleyrodidae (in words)” below) was “strong inhibitory activities”. Further, in the experiment on eggs of Aleyrodidae (listed as 1′-(S, R)), the “Hatching rate (%), Replicate 1” value came out at 0.00%; the “Hatching rate (%), Replicate 2” value stood at 0.00%; the “Hatching rate (%), Replicate 3” value is reported as 0.00%; the “Number of hatched larvae 5 days after insecticide delivery, Replicate 1” value (“Number of hatched larvae 5 days … Replicate 1” below) turned out to be 0. In addition, in the experiment with eggs of Aleyrodidae (listed as 1′-(S, R)), the “Number of hatched larvae 5 days after insecticide delivery, Replicate 2” value (“Number of hatched larvae 5 days … Replicate 2” for short) worked out at 0 and the “Number of hatched larvae 5 days after insecticide delivery, Replicate 3” value (from here on “Number of hatched larvae 5 days … Replicate 3”) came out at 0. In experiment [1], the “inhibitory activity on the hatching of eggs of Tetranychus urticae (in words)” value is reported as “strong inhibitory activities”. Further, in experiment [1] (setting [2]), the “Hatching rate (%)” value turned out to be 0.00% and the “Number of hatched larvae 5 days after insecticide delivery” value was determined as 0. Moreover, in experiment [1] (setting [3]), the “Hatching rate (%)” value was 0.00% and the “Number of hatched larvae 5 days after insecticide delivery” value is listed as 0.
On to `CC(COc1ccc(Cl)cc1Cl)OS(=O)OCCF` [1′-(S,S)], for which, in the experiment on eggs of Aleyrodidae (listed as 1′-(S, S)), the “Hatching rate (%), Replicate 1” value was determined as 15.15%; the “Hatching rate (%), Replicate 2” value came out at 16.19%; the “Hatching rate (%), Replicate 3” value is recorded as 15.38%; the “Number of hatched larvae 5 days … Replicate 1” value is listed as 20. Further, in the experiment with eggs of Aleyrodidae (listed as 1′-(S, S)), the “Number of hatched larvae 5 days … Replicate 2” value is given as 17 and the “Number of hatched larvae 5 days … Replicate 3” value came to 12. In experiment [1] (setting [4]), the “Hatching rate (%)” value came to 20.63% and the “Number of hatched larvae 5 days after insecticide delivery” value is reported as 13. Besides, in experiment [1] (setting [5]), the “Hatching rate (%)” value was 16.22% and the “Number of hatched larvae 5 days after insecticide delivery” value was found to be 12.
Consider `CCC(COc1ccc(Cl)cc1Cl)OS(=O)OCCF` [19-(R,R)], for which, in the experiment on eggs of Aleyrodidae (listed as 19-(R, R)), the “Hatching rate (%), Replicate 1” value is reported as 11.96%; the “Hatching rate (%), Replicate 2” value amounted to 10.20%; the “Hatching rate (%), Replicate 3” value came out at 11.20%; the “Number of hatched larvae 5 days … Replicate 1” value was determined as 11. For the same compound, in the experiment with eggs of Aleyrodidae (listed as 19-(R, R)), the “Number of hatched larvae 5 days … Replicate 2” value is listed as 10 and the “Number of hatched larvae 5 days … Replicate 3” value is reported as 14. Further, in experiment [1] (setting [6]), the “Hatching rate (%)” value was determined as 17.98% and the “Number of hatched larvae 5 days after insecticide delivery” value is 16. Besides, in experiment [1] (setting [7]), the “Hatching rate (%)” value amounted to 17.92% and the “Number of hatched larvae 5 days after insecticide delivery” value is 19.
In the case of `CC[C@H](COc1ccc(Cl)cc1Cl)OS(=O)OCCF` (stereo partly drawn) [19-(R,S)], in the experiment with eggs of Aleyrodidae, the “inhibitory activity … of Aleyrodidae (in words)” value is on record as “strong inhibitory activities”; the “Hatching rate (%), Replicate 1” value amounted to 0.00%; the “Hatching rate (%), Replicate 2” value is 0.00%; the “Hatching rate (%), Replicate 3” value amounted to 0.00%. In the experiment on eggs of Aleyrodidae, the “Number of hatched larvae 5 days … Replicate 1” value was determined as 0; the “Number of hatched larvae 5 days … Replicate 2” value is given as 0; the “Number of hatched larvae 5 days … Replicate 3” value amounted to 0. Further, the “inhibitory activity on the hatching of eggs of Tetranychus urticae (in words)” value in experiment [1] is given as “strong inhibitory activities”. In addition, in experiment [1] (Replicate 1), the “Hatching rate (%)” value is listed as 0.00% and the “Number of hatched larvae 5 days after insecticide delivery” value is reported as 0. In experiment [1] (Replicate 2), the “Hatching rate (%)” value came out at 0.00% and the “Number of hatched larvae 5 days after insecticide delivery” value is listed as 0.
Turning to `CC[C@@H](COc1ccc(Cl)cc1Cl)OS(=O)OCCF` (stereo partly drawn) [19-(S,R)], in the experiment on eggs of Aleyrodidae, the “inhibitory activity … of Aleyrodidae (in words)” value was “strong inhibitory activities”; the “Hatching rate (%), Replicate 1” value was determined as 0.00%; the “Hatching rate (%), Replicate 2” value is 0.00%; the “Hatching rate (%), Replicate 3” value worked out at 0.00%. In the experiment with eggs of Aleyrodidae, the “Number of hatched larvae 5 days … Replicate 1” value amounted to 0; the “Number of hatched larvae 5 days … Replicate 2” value was 0; the “Number of hatched larvae 5 days … Replicate 3” value came out at 0. Moreover, the “inhibitory activity on the hatching of eggs of Tetranychus urticae (in words)” value in experiment [1] was “strong inhibitory activities”. In addition, in experiment [1] (Replicate 1), the “Hatching rate (%)” value is listed as 0.00% and the “Number of hatched larvae 5 days after insecticide delivery” value was found to be 0. Moreover, in experiment [1] (Replicate 2), the “Hatching rate (%)” value came to 0.00% and the “Number of hatched larvae 5 days after insecticide delivery” value was determined as 0.
With `CCC(COc1ccc(Cl)cc1Cl)OS(=O)OCCF` [19-(S,S)], in the experiment on eggs of Aleyrodidae (listed as 19-(S, S)), the “Hatching rate (%), Replicate 1” value is 12.36%; the “Hatching rate (%), Replicate 2” value amounted to 12.03%; the “Hatching rate (%), Replicate 3” value was determined as 12.28%; the “Number of hatched larvae 5 days … Replicate 1” value was 11. Besides, in the experiment with eggs of Aleyrodidae (listed as 19-(S, S)), the “Number of hatched larvae 5 days … Replicate 2” value is 16 and the “Number of hatched larvae 5 days … Replicate 3” value is 14. Moreover, in experiment [1] (setting [8]), the “Hatching rate (%)” value amounted to 17.48% and the “Number of hatched larvae 5 days after insecticide delivery” value is listed as 18. In addition, in experiment [1] (setting [9]), the “Hatching rate (%)” value stood at 14.74% and the “Number of hatched larvae 5 days after insecticide delivery” value worked out at 14.
Take `CCC(COS(=O)OCCF)Oc1ccc(Cl)cc1Cl` [19′-(R,R)]: in the experiment on eggs of Aleyrodidae, the “inhibitory activity … of Aleyrodidae (in words)” value was “strong inhibitory activities”; the “Hatching rate (%), Replicate 1” value came out at 0.00%; the “Hatching rate (%), Replicate 2” value was found to be 0.00%; the “Hatching rate (%), Replicate 3” value is given as 0.00%. For the same compound, in the experiment with eggs of Aleyrodidae, the “Number of hatched larvae 5 days … Replicate 1” value was 0; the “Number of hatched larvae 5 days … Replicate 2” value is given as 0; the “Number of hatched larvae 5 days … Replicate 3” value was 0. Besides, the “inhibitory activity on the hatching of eggs of Tetranychus urticae (in words)” value in experiment [1] is given as “strong inhibitory activities”. In addition, in experiment [1] (setting [10]), the “Hatching rate (%)” value is 0.00% and the “Number of hatched larvae 5 days after insecticide delivery” value amounted to 0. In experiment [1] (setting [11]), the “Hatching rate (%)” value was found to be 0.00% and the “Number of hatched larvae 5 days after insecticide delivery” value is reported as 0.
